# Tested on: C57BL/6J macrophages
# [1] = DMXAA 3 h vs unstimulated wild-type cells
smiles,measurement,setting,value
"Cc1ccc2c(=O)c3cccc(CC(=O)O)c3oc2c1C [DMXAA, 5,6-dimethylxanthenone-4-acetic acid]",CYP1A2 Fold Change: BL/6,,−7.0 fold
same,CYP1A2 WT/KO,,1.8
same,CYP1B1 Fold Change: BL/6,,−44.3 fold
same,CYP1B1 WT/KO,,7.5
same,number of genes down-regulated ≧3-fold,"3 h, vs medium-treated cells",26 genes
same,number of genes up-regulated ≧3-fold,"3 h, vs medium-treated cells",110 genes
same,2310043N10RIK Fold Change: BL/6,[1],−7.1 fold
same,5830484A20RIK Fold Change: BL/6,[1],5.7 fold
same,ABCB1 Fold Change: BL/6,[1],7.9 fold
same,ABL1 Fold Change: BL/6,[1],−8.4 fold
same,ABLIM1 Fold Change: BL/6,[1],−9.7 fold
same,ACVR1B Fold Change: BL/6,[1],−4.5 fold
same,ADRB2 Fold Change: BL/6,[1],−3.2 fold
same,AFTIPHILIN Fold Change: BL/6,[1],3.5 fold
same,AKAP12 Fold Change: BL/6,[1],3.2 fold
same,AMPD3 Fold Change: BL/6,[1],−3.9 fold
same,AP2A2 Fold Change: BL/6,[1],−10.1 fold
same,APBB1IP Fold Change: BL/6,[1],−3.9 fold
same,APOBEC3F Fold Change: BL/6,[1],3.5 fold
same,ARHGEF3 Fold Change: BL/6,[1],4.2 fold
same,ARID3A Fold Change: BL/6,[1],−4.1 fold
same,ARL4C Fold Change: BL/6,[1],5.7 fold
same,ASF1A Fold Change: BL/6,[1],3.7 fold
same,ATRX Fold Change: BL/6,[1],−4.2 fold
same,B3GAT3 Fold Change: BL/6,[1],−9.0 fold
same,BACE1 Fold Change: BL/6,[1],−11.5 fold
same,BAMBI Fold Change: BL/6,[1],4.0 fold
same,BCL2 Fold Change: BL/6,[1],−7.5 fold
same,BCL2L1 Fold Change: BL/6,[1],−14.0 fold
same,BHLHB2 Fold Change: BL/6,[1],−3.8 fold
same,BID Fold Change: BL/6,[1],3.2 fold
same,C8ORF4 Fold Change: BL/6,[1],−35.4 fold
same,C9ORF26 Fold Change: BL/6,[1],9.1 fold
same,CCL2 Fold Change: BL/6,[1],125.6 fold
same,CCL3 Fold Change: BL/6,[1],5.6 fold
same,CCL4 Fold Change: BL/6,[1],15.1 fold
same,CCL5 Fold Change: BL/6,[1],5.3 fold
same,CCL7 Fold Change: BL/6,[1],9.6 fold
same,CCL13 Fold Change: BL/6,[1],16.8 fold
same,CCND2 Fold Change: BL/6,[1],6.4 fold
same,CCNE1 Fold Change: BL/6,[1],3.2 fold
same,CCNF Fold Change: BL/6,[1],−10.6 fold
same,CCRN4L Fold Change: BL/6,[1],5.7 fold
same,CD37 Fold Change: BL/6,[1],−5.2 fold
same,CD40 Fold Change: BL/6,[1],10.3 fold
same,CD86 Fold Change: BL/6,[1],11.1 fold
same,CD274 Fold Change: BL/6,[1],6.0 fold
same,CDC6 Fold Change: BL/6,[1],3.8 fold
same,CDC7 Fold Change: BL/6,[1],−3.4 fold
same,CDC37L1 Fold Change: BL/6,[1],−3.8 fold
same,CDKN1A Fold Change: BL/6,[1],3.1 fold
same,CEBPB Fold Change: BL/6,[1],−3.3 fold
same,CITED2 Fold Change: BL/6,[1],6.8 fold
same,CLCA1 Fold Change: BL/6,[1],−4.8 fold
same,CNR2 Fold Change: BL/6,[1],−9.1 fold
same,CREBBP Fold Change: BL/6,[1],−4.5 fold
same,CXCL10 Fold Change: BL/6,[1],69.1 fold
same,DAXX Fold Change: BL/6,[1],7.9 fold
same,DSCR1 Fold Change: BL/6,[1],3.4 fold
same,FGD6 Fold Change: BL/6,[1],3.0 fold
same,FGL2 Fold Change: BL/6,[1],10.6 fold
same,GBP2 Fold Change: BL/6,[1],4.8 fold
same,GBP4 Fold Change: BL/6,[1],7.5 fold
same,GBP6 Fold Change: BL/6,[1],10.8 fold
same,GYPC Fold Change: BL/6,[1],5.9 fold
same,IFI16 Fold Change: BL/6,[1],4.3 fold
same,IFI35 Fold Change: BL/6,[1],3.6 fold
same,IFI203 Fold Change: BL/6,[1],21.9 fold
same,IFI205 Fold Change: BL/6,[1],6.4 fold
same,IFIH1 Fold Change: BL/6,[1],10.1 fold
same,IFIT1 Fold Change: BL/6,[1],33.5 fold
same,IFIT2 Fold Change: BL/6,[1],27.1 fold
same,IFIT3 Fold Change: BL/6,[1],32.2 fold
same,IFNA5 Fold Change: BL/6,[1],32.4 fold
same,IFNA6 Fold Change: BL/6,[1],77.7 fold
same,IFNB1 Fold Change: BL/6,[1],194.1 fold
same,IFNG Fold Change: BL/6,[1],46.5 fold
same,IGTP Fold Change: BL/6,[1],13.7 fold
same,IIGP1 Fold Change: BL/6,[1],21.9 fold
same,IL6 Fold Change: BL/6,[1],564.6 fold
same,IL12B Fold Change: BL/6,[1],4.4 fold
same,IL15 Fold Change: BL/6,[1],7.2 fold
same,IL15RA Fold Change: BL/6,[1],14.9 fold
same,IRF1 Fold Change: BL/6,[1],6.9 fold
same,IRF2 Fold Change: BL/6,[1],4.1 fold
same,IRGM Fold Change: BL/6,[1],6.6 fold
same,ISG20 Fold Change: BL/6,[1],20.9 fold
same,KATNA1 Fold Change: BL/6,[1],3.2 fold
same,LGP2 Fold Change: BL/6,[1],6.4 fold
same,LHX2 Fold Change: BL/6,[1],92.1 fold
same,LOC129607 Fold Change: BL/6,[1],58.9 fold
same,MAFK Fold Change: BL/6,[1],4.7 fold
same,MARCH5 Fold Change: BL/6,[1],4.7 fold
same,MOV10 Fold Change: BL/6,[1],4.2 fold
same,MX1 Fold Change: BL/6,[1],191.4 fold
same,MX2 Fold Change: BL/6,[1],85.3 fold
same,NMI Fold Change: BL/6,[1],4.5 fold
same,NP Fold Change: BL/6,[1],4.1 fold
same,NT5C3 Fold Change: BL/6,[1],6.4 fold
same,OAS1B Fold Change: BL/6,[1],12.7 fold
same,OASL Fold Change: BL/6,[1],35.6 fold
same,P4HA1 Fold Change: BL/6,[1],4.3 fold
same,P8 Fold Change: BL/6,[1],3.7 fold
same,PARP9 Fold Change: BL/6,[1],4.0 fold
same,PELI1 Fold Change: BL/6,[1],5.9 fold
same,PGF Fold Change: BL/6,[1],25.3 fold
same,PLAU Fold Change: BL/6,[1],3.9 fold
same,PPP1R15A Fold Change: BL/6,[1],5.3 fold
same,PTX3 Fold Change: BL/6,[1],5.3 fold
same,PVRL2 Fold Change: BL/6,[1],6.4 fold
same,PVRL4 Fold Change: BL/6,[1],9.0 fold
same,REL Fold Change: BL/6,[1],3.1 fold
same,RGC32 Fold Change: BL/6,[1],8.7 fold
same,RIPK2 Fold Change: BL/6,[1],3.2 fold
same,RSAD2 Fold Change: BL/6,[1],15.5 fold
same,SAP30 Fold Change: BL/6,[1],3.9 fold
same,SAV1 Fold Change: BL/6,[1],3.2 fold
same,SDC4 Fold Change: BL/6,[1],3.9 fold
same,SECTM1 Fold Change: BL/6,[1],17.7 fold
same,SLC7A2 Fold Change: BL/6,[1],3.6 fold
same,SOAT1 Fold Change: BL/6,[1],3.6 fold
same,SOCS1 Fold Change: BL/6,[1],57.5 fold
same,STAT2 Fold Change: BL/6,[1],3.9 fold
same,TGTP Fold Change: BL/6,[1],60.2 fold
same,TLK2 Fold Change: BL/6,[1],4.2 fold
same,TLR3 Fold Change: BL/6,[1],8.8 fold
same,TMOD3 Fold Change: BL/6,[1],3.4 fold
same,TNF Fold Change: BL/6,[1],6.9 fold
same,TNFRSF11B Fold Change: BL/6,[1],90.5 fold
same,TNFSF9 Fold Change: BL/6,[1],5.1 fold
same,TOR1AIP1 Fold Change: BL/6,[1],3.1 fold
same,TPST1 Fold Change: BL/6,[1],6.7 fold
same,TREX1 Fold Change: BL/6,[1],10.2 fold
same,TRIM21 Fold Change: BL/6,[1],8.4 fold
same,TRIM25 Fold Change: BL/6,[1],4.2 fold
same,TRIM34 Fold Change: BL/6,[1],3.3 fold
same,USP18 Fold Change: BL/6,[1],11.6 fold
same,VCAM1 Fold Change: BL/6,[1],3.4 fold

# From US8957108B2, “Use of 5,6-dimethylxanthenone-4-acetic acid as an antiviral agent” (University of Maryland, Baltimore, priority 2006, dated 2015)
